Legend:
boll weevil larvae [1] = assay: Boll weevil larvae bioassay (agar liquid diet); conditions: in vivo
Description: Boll Weevil Larvae Bioassay
Assays for activity against boll weevil larvae are carried out by incorporating the test sample into a agar liquid diet similar to that for southern corn rootworm [Marrone P. G., Ferri F. D., Mosley T. R., Meinke L. J., “Improvements in laboratory rearing of the southern corn rootworm, Diabrotica undecimpunctata howardi Barber (Coleoptera: Chrysomelidae) on artificial diet and corn,” Journal of Economic Entomology, 78:290-3, 1985]. The test sample is substituted for the 20% water component. Neonate larvae are allowed to feed on the diet and mortality and growth stunting are evaluated.

Lepidopteran larvae = Lepidopteran larvae bioassay (artificial diet); parameters: species or system lepidopteran insects; conditions: in vivo
Description: Lepidopteran Larvae Bioassay
Lepidopteran larvae are tested on artificial diet treated with various amounts of oxalate for a number of days.

adult boll weevils = assay: Boll weevil reproduction test; format: in vivo; conditions: oxalate in standard diet
Description: Preoviposition: Approximately 220 adult boll weevils, collected within 2 days of emergence, are divided into two groups. […] The adults are allowed to feed and mate for four days at which time mortality is determined. Oviposition study: These two groups of adults are then divided into two subgroups and individually placed on artificial, oxalate-containing or control bolls. […] After three days at 27% C, the adults are removed and ten bolls from each of the four groups are removed and examined for eggs. The remaining bolls are incubated for an additional 7 days at 27% C to allow development of larvae. The bolls are then dissected and the eggs and larvae, dead and surviving, are counted. • Group 1=Control Adults placed on control bolls • Group 2=Control Adults placed on treated bolls • Group 3=oxalate-fed adults placed on control bolls • Group 4=oxalate-fed adults placed on treated bolls Mode of Action Studies

boll weevil larvae [2] = assay: Cotton seed diet assay; format: in vivo; conditions: cottonseed flour diets, after six days, in the presence of cotton plant components
Description: Two treatment diets are made by mixing 30 g of one of two types of cottonseed flour into 170 mL of a 1.6% agar solution at 50% C, containing 0.13% propionic acid, 0.014% phosphoric acid, and 30 mg each of streptomycin sulfate and chlortetracycline. Before mixing, 10% KOH was used to adjust the pH to 6.2. One test diet utilized raw cottonseed flour (Sigma) as the nutrient source; the other utilized Pharmamedia.™. (Traders Protein), a flour made up of cottonseed embryos. The diets were incubated in a water bath at 40% C. Dilutions of the oxalate are incorporated into the diets as described above. Boll weevil larvae are allowed to feed and mortality rates are determined after six days.

boll weevil larvae [3] = assay: Homogenized cotton leaf tissue assay; format: in vivo; conditions: cotton leaf tissue agar diet, evaluated six days later
Description: Homogenized Cotton Leaf Tissue Assay In order to test oxalate against boll weevil larvae in a host tissue diet environment, a study is conducted in which cotton leaf tissue is the only nutritional component of an agar-based diet. Two cotton leaves (each approx. 5 inches wide) with stems are homogenized at 50% C into 170 mL of a 1.6% agar solution containing 0.13% propionic acid, 0.014% phosphoric acid, and 30 mg each of streptomycin sulfate and chlortetracycline. Before addition of the leaves, 10% KOH is used to adjust the pH of the agar solution to 6.2. The leaf “diet” is allowed to cool to 40% C. Dilutions of oxalate and a water control are incorporated into the leaf “diet”, poured into insect diet trays and allowed to cool. Boll weevil eggs are added to the diet wells. The assay is evaluated six days later. […] This will illustrate that the oxalate is insecticidal in the presence of intact cotton tissue and cells.

With `O=C(O)C(=O)O` [Oxalate, oxalic acid] the “effect on boll weevil larvae” value (boll weevil larvae [1]) was “lethal”, the “mortality and stunting of larvae of lepidopteran insects” value (Lepidopteran larvae) was “mortality and stunting” and the “effect on reproductive cycle of adult boll weevils” value (adult boll weevils) was “affect the reproductive cycle”. For the same compound, the “effect on reproductive cycle of adult boll weevils” value (adult boll weevils; listed as Oxlate) was “interrupt the reproductive cycle”, the “mortality of boll weevil larvae” value (boll weevil larvae [2]) was “lethal” and the “insecticidal activity in the presence of cotton leaf tissue” value (boll weevil larvae [3]) was “maintains its insecticidal activity”.

— patent US20060014641A1 (priority 2004, published 2006)
